Data on twelve molecules can be found in patent US6451785B1, “Beta lactams as antiproliferative agents” (SmithKline Beecham Corporation, priority 1997, dated 2002).

Data set [1] deals with CoA-IT. Kind of data set: CoA-IT activity assay in U937 cell microsomes. Format: biochemical. The source says: The following is a method to measure CoA-IT activity and the effects of compounds on CoA-IT activity. The assay is based upon mixing cellular material containing CoA-IT activity with a stable lyso phospholipid such as […] and measuring the production of phospholipid product such as […] occurring in the absence of added CoA or CoA-fatty acids.
Any inflammatory cell that contains high levels of CoA-IT activity can be used, such as neutrophils, macrophages or cell lines such as U937 cells. U937 cells were obtained from American Type Culture Collection and grown in RPMI-1640 media (Gibco, Grand Island, N.Y.) supplemented with 10% fetal bovine serum (Hyclone, Logan, UT) at 37° C., 5% CO2. Cells were grown without differentiation (basal state) by any agent, such as dimethyl sulfoxide. As used herein, “inflammatory cells” include, but are not limited to neutrophils, macrophages, monocytes, lymphocytes, eosinophils, basophils, and mast cells.
Microsomes were prepared using standard techniques. In this case, cells were washed with a buffer of 250 mM sucrose, 10 mM Tris, 1 mM EGTA, 1 mM MgCl2, pH 7.4 and ruptured by N2 cavitation (750 psi, 10 minutes). The ruptured cells were centrifuged 1000×g, 5 minutes. The resulting supernatant was centrifuged at 20,000×g,˜20 minutes. Microsomes were prepared from this supernatant by centrifugation at 100,000×g, 60 minutes. The resulting pellet was washed once with assay buffer (150 mM NaCl, 10 mM Na2KPO4, 1 mM EGTA, pH 7.4), recentrifuged and the pellet resuspended in assay buffer (4-20 mg protein/ml) and was stored at −80° C. until assayed.
CoA-II activity was measured in 1.5 ml centrifuge tubes in a total volume of 100 ul. Microsomes were diluted in assay buffer to the desired protein concentration (6-20 ug/tube). The reaction was initiated by addition of [3H]1-alkyl-2-lyso-sn-glycero-3-phosphocholine (GPC) (˜0.1 uCi/tube) and 1 μM final cold 1-alkyl-2-lyso-GPC in assay buffer with 0.25 mg/ml fatty acid-poor bovine serum albumin (BSA) (Calbiochem, La Jolla, Calif.). [3H]1-alkyl-2-lyso-GPC, approximately 50 Ci/mmol, was from NEN-Dupont (Boston, Mass.) and cold 1-alkyl-2-lyso-GPC was from Biomol (Plymouth Meeting, Pa.). Microsomes were pretreated with desired agents for the desired time (10 minutes) before the addition of [3H]1-alkyl-2-lyso-GPC. The reaction was run for the desired tlime (10 minutes) at 37° C. The reaction was stopped and the lipids extracted by addition of 100 ul of chloroform:methanol (1:2, v/v) followed by 100 ul of chloroform and 100 ul of 1 M KCI. The samples were vortexed and centrifuged at high speed in a microfuge for 2-3 minutes. An aliquot of the chloroform-extracted materials were separated, usually by TLC in chloroform/methanol/acetic acid/water (50:25:8:4, v/v), visualized by radioscanning (Bioscan) and the product, [3H]1-alkyl-2-acyl-GPC, was scraped and quantified by liquid scintillation spectroscopy. […] Other methods can be used to separate substrate from product, including but not limited to column chromatography, affinity chromatography and post reaction derivitization.
Protein concentration were assessed using the protein assay reagents from Bio Rad (Richmond, Calif.).

The subject of data set [2] is CoA-IT. The conditions noted are these: literature, background; cited from earlier work.
A further data set has as its system neoplastic cell lines. Conditions: literature, background; several neoplastic cell lines; cited from earlier work.

Regarding `O=S1(=O)CCn2c1nc(-c1ccc(F)cc1)c2-c1ccncc1` [6-(4′-Fluorophenyl)-5-(4-pyridyl)2,3-dihydroimidzo-[2,1-b]thiazole-dioxide], the “effect on CoA-IT activity” value with CoA-IT [1] (at concentrations up to 100 μM) is recorded as “no effect”.

In the case of `Fc1ccc(-c2nc3n(c2-c2ccncc2)CCS3)cc1` [6-(4′-Fluorophenyl)-5-(4-pyridyl)-2,3-dihydroimidzo-[2,1-b]thiazole], in the data set on CoA-IT [1] (at concentrations up to 100 μM), the “effect on CoA-IT activity” value is “no effect”. Still for that read-out and setting: with `Cc1cc(C(C)(C)C)c(O)c(C(C)(C)C)c1` [BHT] the entry was “no effect”. Same read-out and setting: the value for `CN(C)CCC=C1c2ccccc2COc2ccccc21` [Doxepine] was “did not inhibit”. Take `CCCCCCCCCCCCCCCCCCOCC(COP(=O)([O-])OCC[N+](C)(C)C)OC` (stereo not drawn) [ET-18-0-CH3, 1-0-octadecyl-2-0-methyl-phosphocholine]: the “inhibition of CoA-IT” value with CoA-IT [2] is “potent inhibitor”. Also, the “antiproliferative / apoptosis effect” value in the data set on neoplastic cell lines was “attenuate cell proliferation and induce apoptosis”. As for `COC(=O)CCCO[C@@H]1NC(=O)[C@H]1NC(c1ccccc1)(c1ccccc1)c1ccccc1` [Example 17, (3S,4S)-4-[3-(Methoxycarbonyl)propoxy]-3-(triphenylmethylamino)azetidin-2-one], the “activity in microsomal CoA-IT assay under other conditions” value with CoA-IT [1] (increased uM or longer pretreatment time) is “active at either increased uM or longer pretreatment time”. Turning to `O=C(Nc1ccc(Cl)c(C(F)(F)F)c1)Nc1cc(C(F)(F)F)ccc1Oc1cc(Cl)c(Cl)cc1S(=O)(=O)O` [SK&F 45905, 2-[2-[3-(4-Chloro-3-trifluoromethylphneyl)ureido]-4-tifluromethylphenoxy]-4,5-dichlorobenzene sulfonic acid], the “inhibition of CoA-IT” value in the data set on CoA-IT [2] is “capable of inhibiting CoA-IT”. The “antiproliferative / apoptosis effect” value in the data set with neoplastic cell lines was “possess antiproliferative properties”. With `CCOP(=O)(CCCCCCCn1c(-c2ccccc2)c(-c2ccccc2)n(-c2ccccc2)c1=O)OCC` [SK&F 98625, Diethyl 7-(3,4,5-triphenyl-2-oxo-2,3-dihydroimidazol-1yl)heptane phosphonate], the “inhibition of CoA-IT” value in the data set on CoA-IT [2] is “capable of inhibiting CoA-IT”. Further, the “antiproliferative / apoptosis effect” value in the data set with neoplastic cell lines was “possess antiproliferative properties”.

In the case of `COc1cccc2c1cc([N+](=O)[O-])c1c(C(=O)O)cc3c(c12)OCO3` [aristolochic acid], the “effect on CoA-IT activity” value in the data set on CoA-IT [1] (at concentrations up to 500 μM) is given as “no effect”. `COc1ccc2c(c1)c(CC(=O)O)c(C)n2C(=O)c1ccc(Cl)cc1` [indomethicin]: in the data set on CoA-IT [1] (at concentrations up to 100 μM), the “effect on CoA-IT activity” value is recorded as “no effect”.

For `COc1ccc2cc([C@H](C)C(=O)O)ccc2c1` [naproxen], the “effect on CoA-IT activity” value with CoA-IT [1] (at concentrations up to 100 μM) is recorded as “no effect”. Take `CCN(CC)CCCC(C)Nc1c2ccc(Cl)cc2nc2ccc(OC)cc12` (stereo not drawn) [quinacrine]: the “effect on CoA-IT activity” value in the data set with CoA-IT [1] (at concentrations up to 500 μM) is reported as “no effect”.
